Measurements: US20080057039A1, “Diagnostic and Therapeutic Treatments Related to Mitochondrial Disorders” (priority 2003, published 2008)
“Also recorded” adds a separate entry of the source.

Key:
[1] = tested on: p35; assay: p35 upregulation in DRG explants (Western blots); type: cell-based, mice; details: 24-hour stimulation, p35 normalized to actin
Source text: As in SH-SY5Y neurons, Fas engagement induced p35 upregulation in DRG explants after 24-hour stimulation. […] Fas-induced neurite growth is independent of NGF and caspase 8 function, but dependent on ERK activation.

[2] = tested on: DRG neurons; assay: dorsal root ganglia (DRG) neurite outgrowth assay; type: cell-based, mice; details: for neurite outgrowth from DRGs: neonatal mice; for effect on Fas-induced neurite growth: DRGs stimulated through Fas
Source text: We have shown that engaging Fas on sensory neurons induces a rapid, extensive regenerative response. We used the dorsal root ganglia (DRG) neurite outgrowth assay to determine whether Fas engagement could induce axon regeneration in vitro. […] We cultured DRGs with anti-Fas antibodies, with isotype matched control antibodies (as a negative control) or with NGF (as a positive control).
Fas engagement induces neurite outgrowth and p35 upregulation in dorsal root ganglia (D)RG) explants. To determine whether Fas-induced activation of the ERK/p35 pathway in neuroblastoma cells correlated with neurite sprouting in primary neurons, we used the DRG neurite outgrowth assay, a well characterized model for axon regeneration from primary neurons in vitro (Harada, T. et al., 2001, Nat. Cell Biol., 3:453). DRGs are collections of sensory neuron cell bodies, together with supporting Schwann cells and fibroblasts. […] We examined Fas expression selectively on the DRG neurons by flow cytometric analysis of DRG cells positive for neuron-specific tubulin III, thus excluding Schwann cells and other non-neural cell types from the analysis. […] The uniform shift in fluorescence intensity, without the presence of distinct subpopulations, indicates uniform Fas expression on the DRG neurons (geometric mean fluorescence intensity shift from 10.95 with negative control staining to 22.39 with anti-Fas staining). DRG explants were cultured with anti-Fas antibodies, with isotype-matched control antibodies (as a negative control), or with NGF (as a positive control). […] Fas-induced neurite outgrowth was indistinguishable from NGF-induced neurite outgrowth kinetically and by morphological criteria (neurite numbers, length, and branching), and could not be differentiated by blinded observers. Fas-induced neurite growth was robust and prolific, completely filling the wells of 96-well plates after two weeks in culture. […] Thus, Fas engagement induced a rapid and prolific neurite outgrowth response in primary sensory neurons.

[3] = tested on: ERK; assay: ERK activation (dual phosphorylation at threonine 202 and tyrosine 204) in SH-SY5Y cells; type: cell-based, human; details: for effect on Fas-induced ERK activation: plus inhibitor
Experimental: Fas engagement induces ERK activation and p35 expression in SY-SHSY cells. Fas cross-linking has been reported to activate ERK in glioma cells (Shinohara, H. et al., 2000, Cancer Research, 60:1766). […] Fas-induced ERK activation was inhibited by PD98059, but appeared to be caspase 8 independent as it was not affected by […]. ERK activation was detected within five minutes of Fas engagement, and persisted for up to 150 minutes.

[4] = tested on: Jurkat cells; assay: Fas-induced apoptosis, cell cycle analysis by flow cytometry; type: cell-based, human; details: for effect on apoptosis induction by FasL constructs: Jurkat cells, FasL constructs plus inhibitor
Source text: (§1) SH-SY5Y neuroblastoma cells are insensitive to Fas-mediated apoptosis. We used the well-characterized Fas-positive human neuroblastoma cell line SH-SY5Y to investigate Fas signaling in neuronal cells. Because Fas is best known as an inducer of apoptosis, we began by examining anti-Fas-treated SH-SY5Y cells for evidence of Fas-induced apoptosis. Jurkat cells, a human T cell leukemia line considered a model for Fas-mediated apoptosis (Wilson, D. et al., 1999, Cell Immunol., 194:67), provided a positive control. We confirmed that SH-SY5Y cells expressed cell surface Fas by flow cytometry. We then performed cell cycle analysis by flow cytometry on untreated and anti-Fas-treated Jurkat and SH-SY5Y cells after 48 hours in culture.
(§2) As previously reported, Jurkat T cells underwent Fas-induced apoptosis (7.6+2.8% apoptotic cells in the untreated cultures versus 31.3±3.5% in the anti-Fas antibody-treated cultures) (Wilson, D. et al., 1999, Cell Lnmunol., 194:67). […] We then treated the cells with Fas Ligand (FasL) constructs, consisting of FasL fused to a linker peptide and a FLAG-tag that facilitate formation of active trimers. […] Conversely, blockade of the ERK pathway by the MEK1-specific inhibitor PD98059 had no effect on Jurkat apoptosis. […] In addition, we examined replicate populations of cells for evidence of caspase 8 cleavage as an indication of Fas-induced apoptosis, after 4 hours in culture with control antibodies or anti-Fas antibodies.

[5] = tested on: SH-SY5Y neuroblastoma cells; assay: as above; type: cell-based, human; details: for effect on apoptosis of FasL-treated neuroblastoma cells: SH-SY5Y, FasL constructs plus inhibitor
Source text: as §1, §2

[6] = tested on: caspase 8; assay: caspase 8 cleavage in Jurkat cells; type: cell-based, human; details: for effect on caspase 8 cleavage: Jurkat cells stimulated through Fas, plus inhibitor
Source text: as §2
(§3) Furthermore, SH-SY5Y cells expressed dramatically less caspase 8 than did Jurkat cells, although they expressed similar levels of FLIP and of Fas. Low levels of caspase 8 expression and inefficient (or non-physiological) Fas ligation by anti-Fas antibody could have masked potential Fas-induced caspase 8 cleavage in SH-SY5Y cells. Therefore, we stimulated the cells with FasL constructs and normalized protein loading to equivalent caspase 8 (instead of equivalent total protein).

[7] = tested on: p35; assay: Fas-induced p35 expression in SH-SY5Y cells; type: cell-based, human; details: anti-Fas antibodies plus inhibitor
Experimental: Sustained activation of ERK for more than 80 minutes was necessary and sufficient for NGF-inducible neurite outgrowth, and p35 upregulation driven by sustained ERK activation is an essential component of this pathway (Pang, L. et al., 1995, J. Biol. Chem., 270:13585; Harada, T. et al., 2001, Nat. Cell Biol., 3:453). Thus, we examined SH-SY5Y cells for Fas-induced p35 expression. […] Thus, Fas engagement-induced sustained ERK activation and MEKI / ERK-dependent p35 expression in SH-SY5Y neuroblastoma cells.

[8] = tested on: B7.1; assay: cell surface B7.1 on C17.2 neuronal stem cells after H2O2; type: cell-based, mouse; details: C17.2 cells, 24-hr exposure, 0.25 mM
[9] = tested on: Fas (CD95); assay: cell surface Fas on C17.2 neuronal stem cells after H2O2; type: cell-based, mouse; details: C17.2 cells, 24-hr exposure, 0.25 mM
Experimental: Non-permeabilized cells were stained with antibodies to the cell surface receptors Fas (CD95) (Pharmingen) or with antibodies to uncoupling proteins (anti-UCP2 antibody) (Alpha Diagnostic International). Antibodies for both the isotype control and actual stain were added to the cell suspension, mixed, and then placed on ice for and incubation of 25 minutes in the dark. Subsequently the cells were centrifuged at 300×g for 5 minutes and the supernatant removed. The cells were washed one time with 100 μL of PBS/2% FBS and then transferred into flow cyotmetric tubes containing 500 μL of PBS/2% FBS for analysis.
We have measured the levels of intracellular H2O2 in these cells. […] C17.2 cells from passage 15 contained 4-fold higher amount of UCP-2 than C17.2 cells at passage 11. Ts65Dn mice and controls fed regular and fatty acid enriched diet. The effects of dietary supplementation with alpha lipoic acid (LA) and […] (ALCAR) on the Ts65Dn mouse and the strain matched control animals have been examined. […] We attempted this supplementation with old (18 months) Ts65Dn mice.
C17.2 mouse neuronal stem cells (a kind gift from Dr. Evan Schnyder, Harvard) were cultured as described in the Methods above. The cells were treated or not with H2O2 at the concentration indicated on the graphs of FIG. 2. […]

[10] = tested on: caspase 8; assay: caspase 8 cleavage in SH-SY5Y cells; type: cell-based, human
Source text: as §2, §3

Molecule: nerve growth factor [NGF]
- p35 upregulation compared to untreated DRGs [1]: 3.3 fold
- neurite outgrowth from DRGs ([2]; DRG explants): sprout neurites
- neurite outgrowth in dissociated DRG cultures ([2]; glial growth suppressed with cytosine arabinoside): induced
- neurite outgrowth from DRGs of lpr mice ([2]; lpr mice, low to absent Fas expression): delayed and diminished neurite outgrowth

Molecule: COc1cccc(-c2cc(=O)c3ccccc3o2)c1N [PD98059]
- effect on Fas-induced ERK activation [3]: inhibited
- effect on apoptosis induction by FasL constructs [4]: no effect
- effect on apoptosis of FasL-treated neuroblastoma cells [5]: Neither IETD nor PD98059 had any effect
- effect on caspase 8 cleavage [6]: unaffected
- effect on Fas-induced p35 upregulation [7]: prevented
- toxicity to other DRG cells such as Schwann cells ([2]; DRG explants): not toxic
- effect on Fas-induced neurite growth [2]: prevented
- effect on NGF-induced neurite outgrowth ([2]; DRGs stimulated with NGF): blocked
- toxicity to DRG neurons ([2]; inhibitor washed out after two days, restimulated with NGF or FasL constructs): did not kill the neurons

Molecule: OO [H2O2]
- cell surface expression of B7.1 [8]: increased
- cell surface expression of Fas (CD95) [9]: increased

Molecule: z-IETD-frnk
- effect on Fas-induced ERK activation [3]: not affected
- effect on apoptosis induction by FasL constructs [4]: completely abrogated
- effect on apoptosis of FasL-treated neuroblastoma cells [5]: Neither IETD nor PD98059 had any effect
- effect on caspase 8 cleavage [6]: reduced to background levels
- effect on Fas-induced neurite growth [2]: not affected; also recorded: not blocked

B1: FasL constructs: FasL fused to a linker peptide and a FLAG-tag that facilitate formation of active trimers (protein, UniProt P48023 130-281, looked up)
Tumor necrosis factor ligand …: QIGHPSPPPEKKELRKVAHLTGKSNSRSMPLEWEDTYGIVLLSGVKYKKGGLVINETGLYFVYSKVYFRGQSCNNLPLSHKVYMRNSKYPQDLVMMEGKMMSYCTTGQMWARSSYLGAVFNLTSADHLYVNVSELSLVNFEESQTFFGLYKL
modifications: linker, FLAG tag
- ERK activation [3]: triggered ERK activation
- apoptotic cells ([4]; Jurkat, after 24 hour treatment): > 90%
- apoptotic response ([5]; SH-SY5Y cells): failed to induce any detectable apoptotic response
- increase of caspase 8 cleavage, treated versus untreated cells ([6]; Jurkat cells, loading normalized to equivalent caspase 8): more than 60%
- induction of caspase 8 cleavage [10]: no increase
- neurite outgrowth from DRGs ([2]; DRG explants): induced robust neurite growth
